Counter-ions that a name gives are not always drawn.

The target of the experiment is T1, human α2C receptor (Homo sapiens, UniProt P18825).
T1 construct: expressed in transfected cells; host or cells: CHO cells, also recombinantly expressing chimeric G protein Gαqi3 and mitochondrial obelin (mtOb)
T1 sequence (P18825 1-462): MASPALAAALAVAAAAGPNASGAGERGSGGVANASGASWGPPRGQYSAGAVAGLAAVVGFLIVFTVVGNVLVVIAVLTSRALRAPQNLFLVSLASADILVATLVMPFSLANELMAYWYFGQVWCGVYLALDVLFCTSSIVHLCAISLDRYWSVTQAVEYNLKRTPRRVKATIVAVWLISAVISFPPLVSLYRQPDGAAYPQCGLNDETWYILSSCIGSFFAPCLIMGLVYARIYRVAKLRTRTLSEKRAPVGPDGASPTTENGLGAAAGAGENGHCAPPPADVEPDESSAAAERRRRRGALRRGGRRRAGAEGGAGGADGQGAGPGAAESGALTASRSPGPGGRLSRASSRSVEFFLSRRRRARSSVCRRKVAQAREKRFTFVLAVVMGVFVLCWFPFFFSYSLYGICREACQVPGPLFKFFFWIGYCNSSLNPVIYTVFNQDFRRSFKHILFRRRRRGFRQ
The experiment in a line: Antagonism against the adrenoreceptor α2C (luminescence, recombinant CHO cell line). In kind it is cell-based. The following applies: antagonism against adrenoreceptor α2C; noradrenaline 20 nM; tested up to 10 μM; read-out: IC50. How it is done:
Antagonism against the adrenoreceptor α1A was tested using a recombinant human α1A receptor CHO cell line which additionally also recombinantly expresses mtAeq (mitochondrial aequorin). Antagonism against the adrenoreceptor α2A was tested using a recombinant human α2A-Gα16 receptor fusion protein CHO cell line (PerkinElmer Life Sciences) which additionally also recombinantly expresses mtAeq. Antagonism against the adrenoreceptor α2B was tested using a recombinant human α2B receptor CHO cell line (PerkinElmer Life Sciences) which additionally also recombinantly expresses mtAeq. Antagonism against the adrenoreceptor α2C was tested using a recombinant human α2C receptor CHO cell line which additionally also recombinantly expresses a chimaric G protein (Gαqi3) and mtOb (mitochondrial obelin).
The cells were cultivated at 37° C. and 5% CO2 in Dulbecco's modified Eagle's Medium/NUT mix F12 with L-glutamine which additionally contains 10% (v/v) inactivated foetal calf serum, 1 mM sodium pyruvate, 0.9 mM sodium bicarbonate, 50 U/ml penicillin, 50 μg/ml streptomycin, 2.5 μg/ml amphotericin B and 1 mg/ml Geneticin. The cells were passaged with enzyme-free Hank's-based cell dissociation buffer. All cell culture reagents used are from Invitrogen (Carlsbad, USA).
Luminescence measurements were carried out on white 384-well microtitre plates. 2000 cells/well were plated in a volume of 25 μl and cultivated for one day at 30° C. and 5% CO2 in cell culture medium with coelenterazine (α2A and α2B: 5 μg/ml; α1a/c and α2C: 2.5 μg/ml). Serial dilutions of the test substances (10 μl) were added to the cells. After 5 minutes, noradrenalinee was added to the cells (35 μl; final concentrations: 20 nM (α1a/c and α2C) or 200 nM (α2A and α2B)), and the emitted light was measured for 50 seconds using a CCD (charge-coupled device) camera (Hamamatsu Corporation, Shizuoka, Japan) in a light-tight box. The test substances were tested up to a maximum concentration of 10 μM. The IC50 values were calculated from the appropriate dose-response curves.
Consider `CC(C)(O)c1ccc(C(=O)N2CCC(N3CCCC(c4ncn[nH]4)C3)CC2)cc1` (centres unmarked) [Example 64], for which the concentration for half-maximal inhibition (IC50) came to 393 nM.

As to `CC1=C(C)CN(C2CCN(C(=O)c3ccc(C(=O)Nc4c(C)noc4C)cc3)CC2)CC1` [Example 104, 4-{[4-(4,5-Dimethyl-3,6-dihydropyridin-1 (2H)-yl)piperidin-1-yl]carbonyl}-N-(3,5-dimethyl-1,2-oxazol-4-yl)benzamide], the 50% inhibitory concentration (IC50) was determined as 9 nM.

With `COCC1CCCN(C2CCN(C(=O)c3ccc(C(=O)NCc4ncc(F)cc4F)cc3)CC2)C1` (centres unmarked) [Example 97, N-[(3,5-Difluoropyridin-2-yl)methyl]-4-{[3-(methoxymethyl)-1,4′-bipiperidin-1′-yl]carbonyl}benzamide trifluoroacetic acid salt], the concentration for half-maximal inhibition (IC50) was determined as 10 nM.

Turning to `CC(C)(O)c1ccc(C(=O)N2CCC(N3CCCC(COC4CC4)C3)CC2)cc1` (centres unmarked) [Example 118, {3-[(Cyclopropyloxy)methyl]-1,4′-bipiperidin-1′-yl}[4-(2-hydroxypropan-2-yl)phenyl]methanone], the IC50 was determined as 8 nM.

Regarding `CCOC(=O)C1CCCN(C2CCN(C(=O)c3ccc(C(C)(C)OC)cc3)CC2)C1` (centres unmarked) [Example 42, Ethyl 1′-[4-(2-methoxypropan-2-yl)benzoyl]-1,4′-bipiperidine-3-carboxylate], the IC50 turned out to be 26 nM.

On to `COCC1CCCN(C2CCN(C(=O)c3ccc(C(C)(C)O)cc3)CC2)C1` (centres unmarked) [Example 58, [4-(2-Hydroxypropan-2-yl)phenyl][3-(methoxymethyl)-1,4′-bipiperidin-1′-yl]methanone], for which the IC50 came to 25 nM.

With `CC1CCCN(C2CCN(C(=O)c3ccc(C4(CN(C)S(C)(=O)=O)CCC4)cc3)CC2)C1` (centres unmarked) [Example 57, N-Methyl-N-[(1-{4-[(3-methyl-1,4′-bipiperidin-1′yl)carbonyl]phenyl}cyclobutyl)methyl]methanesulphonamide], the half-inhibitory concentration (IC50) stood at 18 nM.

For the compound `CC1CCCN(C2CCN(C(=O)c3ccc(CC4(C)COC4)cc3)CC2)C1` (centres unmarked) [Example 23, (3-Methyl-1,4′-bipiperidin-1′-yl){4-[(3-methyloxetan-3-yl)methyl]phenyl}methanone], the IC50 was found to be 136 nM.

Take `CCOC(=O)Cc1ccc(C(=O)N2CCC(N3CCCC(C)C3)CC2)cc1` (centres unmarked) [Example 33, 1-{1-[4-(2-Ethoxy-2-oxoethyl)benzoyl]piperidin-4-yl}-3-methylpiperidine trifluoroacetic acid salt]: the IC50 was 497 nM.

`CCOC(=O)C1(c2ccc(C(=O)N3CCC(N4CCCC(C)C4)CC3)cc2)CC1` (centres unmarked) [Example 30, 1-(1-{4-[1-(Ethoxycarbonyl)cyclopropyl]benzoyl}piperidin-4-yl)-3-methylpiperidine trifluoroacetic acid salt]: the 50% inhibitory concentration (IC50) was 166 nM.

As to `CCCN(CC1CC1)C(=O)c1ccc(C(=O)N2CCC(N3CCCC(C)C3)CC2)cc1` (centres unmarked) [Example 51, N-(cyclopropyl-methyl)-4-[(3-methyl-1,4′-bipiperidin-1′-yl)carbonyl]-N-propylbenzamide], the IC50 is 180 nM.

With `CC1CCCN(C2CCN(C(=O)c3ccc(C(C)(C)C)c(Cl)c3)CC2)C1` (centres unmarked) [Example 3, (3-Chloro-4-tert-butylphenyl)(3-methyl-1,4′-bipiperidin-1′-yl)methanone trifluoroacetic acid salt], the IC50 was found to be 268 nM.

Take `CC1CCCN(C2CCN(C(=O)c3ccc(C(C)(C)C)cc3)CC2)C1` (centres unmarked) [Example 5, (4-tert-Butylphenyl)(3-methyl-1,4′-bipiperidin-1′-yl)methanone]: the IC50 stood at 99 nM.

Consider `CC(NC(=O)c1ccc(C(=O)N2CCC(N3CCC[C@@H](C)C3)CC2)cc1)c1c(F)cccc1F` (stereo partly drawn) [Example 87, N-[1-(2,6-Difluorophenyl)ethyl]-4-{[(3R)-3-methyl-1,4′-bipiperidin-1′-yl]carbonyl}benzamide trifluoroacetic acid salt], for which the half-maximal inhibitory concentration (IC50) came out at 16 nM.

`CC(C)(O)c1ccc(C(=O)N2CCC(N3CCCC(OCC4CC4)C3)CC2)cc1` (single isomer, unassigned; enantiomer 1) [Example 129, [3-(Cyclopropylmethoxy)-1,4′-bipiperidin-1′-yl][4-(2-hydroxypropan-2-yl)phenyl]methanone hydrochloride (enantiomer 1)]: the IC50 stood at 16 nM.

Take `CC(C)(O)c1ccc(C(=O)N2CCC(N3CCCC(c4nc(C5CCC5)n[nH]4)C3)CC2)cc1` (centres unmarked) [Example 61, [3-(5-Cyclobutyl-4H-1,2,4-triazol-3-yl)-1,4′-bipiperidin-1′-yl][4-(2-hydroxypropan-2-yl)phenyl]methanone]: the IC50 was 111 nM.

As to `CC1CCCN(C2CCN(C(=O)c3ccc(C(=O)NC(C)(C)c4ccccc4)cc3)CC2)C1` (centres unmarked) [Example 71, 4-[(3-Methyl-1,4′-bipiperidin-1′-yl)carbonyl]-N-(2-phenylpropan-2-yl)benzamide trifluoroacetic acid salt], the IC50 stood at 64 nM.

For the compound `COCCc1noc(C2CCCN(C3CCN(C(=O)c4ccc(C(C)(C)C)cc4)CC3)C2)n1` (centres unmarked) [Example 109, (4-tert-Butylphenyl){3[3-(2-methoxyethyl)-1,2,4-oxadiazol-5-yl]-1,4′-bipiperidin-1′-}methanone], the IC50 worked out at 104 nM.

Consider `CC1CCCN(C2CCN(C(=O)c3ccc(C(=O)NCc4ccccc4C(F)(F)F)cc3)CC2)C1` (centres unmarked) [Example 81, 4-[(3-Methyl-1,4′-bipiperidin-1′-yl)carbonyl]-N-[2-(trifluoromethyl)benzyl]benzamide trifluoroacetic acid salt], for which the half-maximal inhibitory concentration (IC50) was 57 nM.

Turning to `CC1CCCN(C2CCN(C(=O)c3ccc(C(=O)NC(C)(C)c4cccc(Cl)c4)cc3)CC2)C1` (centres unmarked) [Example 79, N-[2-(3-Chlorophenyl)propan-2-yl]-4-[(3-methyl-1,4′-bipiperidin-1′-yl)carbonyl]benzamide trifluoroacetic acid salt], the IC50 amounted to 54 nM.

For the compound `C[C@@H]1CCCN(C2CCN(C(=O)c3ccc(C(=O)NC(C)(C)C)c(Cl)c3)CC2)C1` [Example 100, N-tert-Butyl-2-chloro-4-{[(3R)-3-methyl-1,4′-bipiperidin-1′-yl]carbonyl}benzamide formic acid salt], the half-maximal inhibitory concentration (IC50) was determined as 27 nM.

In the case of `CC1CCCN(C2CCN(C(=O)c3ccc(COc4ccccc4)cc3)CC2)C1` (centres unmarked) [Example 14, [4-(Phenoxymethyl)phenyl](3-methyl-1,4′-bipiperidin-1′-yl)methanone], the concentration for half-maximal inhibition (IC50) worked out at 115 nM.

For the compound `C[C@@H]1CCCN(C2CCN(C(=O)c3ccc(C(=O)NCc4cccc(OC(F)F)c4)cc3)CC2)C1` [Example 86, (R)—N-[3-(Difluoromethoxy)benzyl]-4-[(3-methyl-1,4′-bipiperidin-1′-yl)carbonyl]benzamide trifluoroacetic acid salt], the IC50 stood at 180 nM.

For the compound `COc1cc(C(C)(C)C)ccc1C(=O)N1CCC(N2CCCC(C)C2)CC1` (centres unmarked) [Example 15, (4-tert-Butyl-2-methoxyphenyl)(3-methyl-1,4′-bipiperidin-1′-yl)methanone], the concentration for half-maximal inhibition (IC50) was determined as 98 nM.

`COC(C)(C)c1ccc(C(=O)N2CCC(N3CCCC(OCC4CC4)C3)CC2)cc1` (centres unmarked) [Example 122, [3-(Cyclopropylmethoxy)-1,4′-bipiperidin-1′-yl][4-(2-methoxypropan-2-yl)phenyl]methanone]: the IC50 is 9 nM.

For the compound `CCOC(=O)C1CCCN(C2CCN(C(=O)c3ccc(CC4(C)COC4)cc3)CC2)C1` (centres unmarked) [Example 24, Ethyl 1′-{4-[(3-methyloxetan-3-yl)methyl]benzoyl}-1,4′-bipiperidine-3-carboxylate], the 50% inhibitory concentration (IC50) amounted to 17 nM.

These data come from patent publication US20160318866A1, “SUBSTITUTED BIPIPERIDINYL DERIVATIVES” (Bayer Pharma Aktiengesellschaft, priority 2013, published 2016).
